Laboratory results published in US20150150768A1, “Furan Based Composition” (Los Alamos National Security LLC, priority 2013, published 2015).
Like-named read-outs stand apart in the source and are kept apart here.

Tests used:
[1] = Dynamic interfacial tension analysis (dIFT), ascending canola oil drop in aqueous surfactant solution; assay type: physicochemical; conditions: 200 ppm surfactant, pH 8.3-8.5, canola oil
Experimental: Method—Dynamic Interfacial Tension Analysis (dIFT) Dynamic Interfacial Tension analysis was performed on a Krüss® DVT30 Drop Volume Tensiometer (Krüss USA, Charlotte, N.C.). The instrument was configured to measure the interfacial tension of an ascending oil drop in the aqueous surfactant solution. The oil used was canola oil (Crisco Pure Canola Oil manufactured by The J.M. Smucker Company). The aqueous surfactant and oil phases were temperature controlled at 21.1° C. (+/−1° C.), via a recirculating water temperature controller attached to the tensiometer. A dynamic interfacial tension curve was generated by dispensing the oil drops into the aqueous surfactant phase from an ascending capillary with an internal diameter of 0.2540 mm, over a range of flow rates and measuring the interfacial tension at each flow rate. Data is generated at oil dispensing flow rates of 500 μL/min to 1 μL/min with 2 flow rates per decade on a logarithmic scale (7 flow rates measured in this instance). Interfacial tension was measured on three oil drops per flow rate and then averaged. Interfacial tension was reported in units of mN/m. Surface age of the oil drops at each flow rate is also recorded and plots can be generated either of interfacial tension (y-axis) versus oil flow rate (x-axis) or interfacial tension (y-axis) versus oil drop surface age (x-axis). […] Example of analysis of a 200 ppm surfactant concentration, with water hardness (3:1 Ca:Mg) of 6 or 20 grains per gallon (gpg) as noted, 21.1° C., pH 8.3-8.5: Sample was analyzed as described above. Density settings for 21.1° C. were set at 0.917 g/ml for Canola Oil and 0.998 g/ml for aqueous surfactant phase (assumed to be the same as water since dilute solution). To a 100 ml volumetric flask was added 2.00 mL of 1% (wt/wt) Surfactant solution in deionized water and the volumetric is then filled to the mark with 6.12 gpg water for target 6 gpg solution or 20.408 gpg water for target 20 gpg solution, (3:1 CaCl2:MgCl2 solution) and mixed well. The solution was transferred to a beaker and the pH adjusted to 8.3-8.5 by addition of a few drops of 0.1 N NaOH or 0.1 N H2SO4. The solution is then loaded into the tensiometer measurement cell and analyzed. Total time from addition of hardness to surfactant to time loaded into tensiometer is 5 minutes. The following surfactants were analyzed via dIFT measurements. Surfactants were analyzed at a level of 200 ppm. Analysis conditions are in water of both 6 and 20 gpg Calcium/Magnesium water hardness level (3:1 calcium:magnesium), 21.1° C. and adjusted to pH 8.3-8.5.

[2] = Solubility of system at 1 wt % with hardness; assay type: physicochemical
Excerpt: Stock solutions of all species were made at 1% by weight in deionized water. […] […] […] Additionally a modified LAS (MLAS) was chosen for comparison.

[3] = solution hardness 6 gpg (3:1 Calcium:Magnesium)
[4] = solution hardness 20 gpg (3:1 Calcium:Magnesium)
[5] = 1% solution by weight in deionized water
[6] = 1% solution by weight in deionized water, heated to approximately 55° C.
[7] = aliquot of 1% solution diluted to 200 ppm with 6.122 gpg water

| IFT @ 1 μL/min Oil Flowrate, 21.1° C. [1, 3] [mN/m] | IFT @ 1 μL/min Oil Flowrate, 21.1° C. [1, 4] [mN/m] | Soluble after addition of 6 gpg hardness (for at least 30 minutes) [2] | Soluble after heating to ≈55° C. [2] | Soluble at Room Temperature [2] | Compound | Soluble at Room Temperature [2, 5] | Soluble after heating to ≈55° C. [2, 6] | Soluble after addition of 6 gpg hardness (for at least 30 minutes) [2, 7] |
| --- | --- | --- | --- | --- | --- | --- | --- | --- |
| 1.15 | 0.94 | – | – | – | CCCCCCCCCCC(C)c1ccc(S(=O)(=O)[O-])o1.[Na+] (centres unmarked) [C12 2-furan AFS, sodium 5-(dodecan-2-yl)furan-2-sulfonate] | Yes | Yes | Yes |
| 0.08 | 0.08 | Yes | Yes | No | CCCCCCCCCCCCCc1ccc(S(=O)(=O)[O-])o1.[Na+] [C13 1-furan AFS, sodium 5-tridecanfuran-2-sulfonate] | – | – | – |

Second part, the compound before the results:

| Compound | IFT @ 1 μL/min Oil Flowrate, 21.1° C. [1, 3] [mN/m] | IFT @ 1 μL/min Oil Flowrate, 21.1° C. [1, 4] [mN/m] | Soluble after addition of 6 gpg hardness (for at least 30 minutes) [2] | Soluble after heating to ≈55° C. [2] | Soluble at Room Temperature [2] | Soluble at Room Temperature [2, 5] | Soluble after heating to ≈55° C. [2, 6] | Soluble after addition of 6 gpg hardness (for at least 30 minutes) [2, 7] |
| --- | --- | --- | --- | --- | --- | --- | --- | --- |
| CCCCCCCCCCC(C)c1ccc(S(=O)(=O)O)cc1 (centres unmarked) [C12 2-phenyl LAS, reference compound] | – | – | – | – | – | No | Yes | did not remain soluble and No |
| sodium 5-dodecanfuran-2-sulfonate [C12 1-furan AFS] | – | – | – | – | – | No | Yes | Yes |
| CCCCCCCCCC(C)c1ccc(S(=O)(=O)[O-])o1.[Na+] (centres unmarked) [C11 2-furan AFS, sodium 5-(undecan-2-yl)furan-2-sulfonate] | 7.25 | 4.03 | – | – | – | Yes | Yes | Yes |
| CCCCCCCCCCCCc1ccc(S(=O)(=O)[O-])o1.[Na+] [C12 1-furan AFS, sodium 5-dodecanfuran-2-sulfonate] | 0.31 | 0.25 | – | – | – | – | – | – |
